Data: publication PMC3388857, “Synthesis and antiviral activities of spacer-linked 1-thioglucuronide analogues of glycyrrhizin” (Beilstein Journal of Organic Chemistry, 2012)

Assays:
MDCK cells = conditions: uninfected MDCK cells, 3.1 µM to 250 µM, 48 h
in vitro = conditions: dog, CC50 (cytotoxic concentration 50%), compound-treated uninfected MDCK cells, 48 h, cell viability
influenza A H3N2 virus = test: Antiviral activity in influenza A virus-infected MDCK cells (prevention of virus-induced cytopathicity, CellTiter-Glo, 48 h); assay type: cell-based, influenza A virus A/Aichi/2/68 (H3N2); conditions: for antiviral activity (in words): influenza A H3N2-infected MDCK cells, up to 250 µM; for IC50: Influenza A virus, H3N2, MDCK, 48 h, MDCK cells infected with influenza A H3N2, MOI 0.05, compound added with virus, read-out: IC50 (half-maximal inhibitory concentration, antiviral activity); for fold more active compared to GL: ratio of antiviral IC50 values versus lead compound GL
Protocol: For biological testing the compounds were dissolved in DMSO and diluted in cell culture medium to a maximum final DMSO concentration of 1%. For determination of the cytotoxicity of the compounds, MDCK cells were treated with compound concentrations ranging from 3.1 µM to 250 µM for 48 h and then cell viability was determined as a surrogate endpoint for cytotoxicity. […] GL was not toxic at 2500 µM (Table 1). The antiviral activity of the compounds was determined by infecting MDCK cells with influenza A H3N2 virus and treating them with different concentrations of compounds at the same time. […] Compound 16 containing only the N-succinyl substituent is a close analogue to CBX bearing an amide instead of the ester group. […] This was further supported by the data obtained with compound 23 containing a 1-thioethyl-linked glucuronic acid residue at position 3 of 1,2-dehydro-glycyrrhetinic acid.
The influenza A virus (IAV) was obtained from American Tissue Culture Collection (A/Aichi/2/68 (H3N2); VR-547). Virus stocks were prepared by propagation of virus on Mardin-Darby canine kidney (MDCK; ATCC CCL-34) cells and infectious titers of virus stocks were determined by the 50% tissue culture infective dose (TCID50) analysis as described in [5].
MDCK cells were seeded in 96-well plates at 2×10^4 cells/well using DMEM/Ham’s F-12 (1:1) medium containing 10% foetal bovine serum (FBS), 2 mM L-glutamine and 1% antibiotic– antimycotic solution (penicillin, 10.000 units/mL; streptomycin, sulfate 10 mg/mL; Amphotericin B, 25 µg/ml) (all from PAA). Until infection the cells were incubated for 5 h at 37 °C/5.0% CO2 to form a ~80% confluent monolayer on the bottom of the well. Test compounds were dissolved in DMSO and dilution series were prepared in infection medium (DMEM/Ham’s F-12 (1:1) containing 5 µg/mL trypsin (Sigma T4945), and 1% antibiotic–antimycotic solution) resulting in a final plate well DMSO concentration of 1%. The virus stock was generally diluted in infection medium (DMEM/Ham’s F-12 (1:1) containing 5 µg/mL trypsin, 1% DMSO, and 1% antibiotics) to a theoretical multiplicity of infection (MOI) of 0.05. After removal of the culture medium and one washing step with PBS, the virus and compound solution were added together to the cells. In the wells used for cytotoxicity determination (uninfected cells), the virus suspension was replaced by infection medium. Each treatment was conducted in two replicates. After incubation at 37 °C, […]
formation, or other notable abnormalities. Then, cell viability was determined by using CellTiter-Glo luminescent cell viability assay (Promega). The supernatant was removed carefully and 65 µL of the reconstituted reagent was added to each well and incubated for 15 min at room temperature under gentle shaking. Then, 60 µL of the solution was transferred to an opaque plate and luminescence (RLU) was measured by using a Synergy HT plate reader (Biotek). The […]
compounds were titrated on virus-infected MDCK cells and the response (RLU) was used to determine the IC50 value by using a 4-parameter logistic equation (GraphPad Prism) whereby the top and bottom of the curve were defined by the response (RLU) of untreated uninfected cells and untreated infected cells, respectively. The cytotoxicity of the compounds was determined by titration on uninfected MDCK cells, and the response (RLU) was used to determine the CC50 value by using a 4-parameter logistic equation whereby the top of the curve was defined by the response (RLU) of untreated uninfected cells. […]

In the case of `CC1(C)[C@@H](OC(=O)CCC(=O)O)CC[C@]2(C)[C@H]3C(=O)C=C4[C@@H]5C[C@@](C)(C(=O)O)CC[C@]5(C)CC[C@@]4(C)[C@]3(C)CC[C@@H]12` [CBX, carbenoxolone, reference compound], the “cytotoxicity (in words)” value (MDCK cells) is reported as “toxic at low concentrations”, the CC50 (in vitro) is reported as 17.8 ± 2.3 µM and the “antiviral activity (in words)” value (influenza A H3N2 virus) is reported as “did not show any antiviral activity at nontoxic concentrations”.

With `COC(=O)[C@H]1O[C@@H](SCCN[C@H]2CC[C@@]3(C)C(CC[C@]4(C)C3C(=O)C=C3[C@@H]5C[C@@](C)(C(=O)O)CC[C@]5(C)CC[C@]34C)C2(C)C)[C@H](O)[C@@H](O)[C@@H]1O` (some centres unmarked) [Compound 12] the CC50 (in vitro) was > 250 µM, the IC50 (influenza A H3N2 virus) was 220 ± 41 µM and the “fold more active compared to GL” value (influenza A H3N2 virus) was 4.7 fold.

In the case of `CC1(C)C2CC[C@]3(C)C(C(=O)C=C4[C@@H]5C[C@@](C)(C(=O)O)CC[C@]5(C)CC[C@]43C)[C@@]2(C)CC[C@@H]1NCCS[C@@H]1O[C@H](C(=O)O)[C@@H](O)[C@H](O)[C@H]1O` (some centres unmarked) [Compound 13], the CC50 (in vitro) is reported as > 250 µM and the IC50 (influenza A H3N2 virus) is reported as > 250 µM.

For `COC(=O)[C@H]1O[C@@H](SCCN(C(C)=O)[C@H]2CC[C@@]3(C)C(CC[C@]4(C)C3C(=O)C=C3[C@@H]5C[C@@](C)(C(=O)O)CC[C@]5(C)CC[C@]34C)C2(C)C)[C@H](O)[C@@H](O)[C@@H]1O` (some centres unmarked) [Compound 14], the IC50 (influenza A H3N2 virus) was 72.1 µM and the “fold more active compared to GL” value (influenza A H3N2 virus) was “approximately 14 fold”.

For `CC(=O)N(CCS[C@@H]1O[C@H](C(=O)O)[C@@H](O)[C@H](O)[C@H]1O)[C@H]1CC[C@@]2(C)C(CC[C@]3(C)C2C(=O)C=C2[C@@H]4C[C@@](C)(C(=O)O)CC[C@]4(C)CC[C@]23C)C1(C)C` (some centres unmarked) [Compound 15], the CC50 (in vitro) was > 250 µM, the IC50 (influenza A H3N2 virus) was 87 ± 7.9 µM and the “antiviral activity (in words)” value (influenza A H3N2 virus) was “IC50 value in the same range as the methyl ester 14”.

With `CC1(C)C2CC[C@]3(C)C(C(=O)C=C4[C@@H]5C[C@@](C)(C(=O)O)CC[C@]5(C)CC[C@]43C)[C@@]2(C)CC[C@@H]1NC(=O)CCC(=O)O` (some centres unmarked) [Compound 16, reference compound] the “cytotoxicity (in words)” value (MDCK cells) was “not toxic”, the CC50 (in vitro) was > 250 µM and the IC50 (influenza A H3N2 virus) was > 250 µM. For the same compound, the “antiviral activity (in words)” value (influenza A H3N2 virus) was “inactive”.

For `COC(=O)CCC(=O)N(CCS[C@@H]1O[C@H](C(=O)OC)[C@@H](O)[C@H](O)[C@H]1O)[C@H]1CC[C@@]2(C)C(CC[C@]3(C)C2C(=O)C=C2[C@@H]4C[C@@](C)(C(=O)O)CC[C@]4(C)CC[C@]23C)C1(C)C` (some centres unmarked) [Compound 18], the CC50 (in vitro) was > 250 µM, the IC50 (influenza A H3N2 virus) was 125 ± 15.9 µM and the “fold more active compared to GL” value (influenza A H3N2 virus) was 8 fold.

In the case of `CC1(C)C2CC[C@]3(C)C(C(=O)C=C4[C@@H]5C[C@@](C)(C(=O)O)CC[C@]5(C)CC[C@]43C)[C@@]2(C)CC[C@@H]1N(CCS[C@@H]1O[C@H](C(=O)O)[C@@H](O)[C@H](O)[C@H]1O)C(=O)CCC(=O)O` (some centres unmarked) [Compound 19], the CC50 (in vitro) is reported as > 250 µM and the IC50 (influenza A H3N2 virus) is reported as > 250 µM.

With `CC1(C)C(SCCS[C@@H]2O[C@H](C(=O)O)[C@@H](O)[C@H](O)[C@H]2O)C=C[C@@]2(C)C1CC[C@]1(C)C2C(=O)C=C2[C@@H]3C[C@@](C)(C(=O)O)CC[C@]3(C)CC[C@]21C` (some centres unmarked) [Compound 23] the “cytotoxicity (in words)” value (MDCK cells) was “no cytotoxicity at the concentrations tested”, the CC50 (in vitro) was > 250 µM and the IC50 (influenza A H3N2 virus) was 54 ± 13 µM.

For `CC1(C)[C@@H](O)CC[C@]2(C)[C@H]3C(=O)C=C4[C@@H]5C[C@@](C)(C(=O)O)CC[C@]5(C)CC[C@@]4(C)[C@]3(C)CC[C@@H]12` [GA, glycyrrhetinic acid, reference compound], the CC50 (in vitro) was 7.4 ± 0.05 µM and the “antiviral activity (in words)” value (influenza A H3N2 virus) was “did not show any antiviral activity at nontoxic concentrations”.

In the case of `CC1(C)[C@@H](O[C@H]2O[C@H](C(=O)O)[C@@H](O)[C@H](O)[C@H]2O[C@@H]2O[C@H](C(=O)O)[C@@H](O)[C@H](O)[C@H]2O)CC[C@]2(C)[C@H]3C(=O)C=C4[C@@H]5C[C@@](C)(C(=O)O)CC[C@]5(C)CC[C@@]4(C)[C@]3(C)CC[C@@H]12` [GL, glycyrrhizin], the CC50 (in vitro) is reported as > 2500 µM and the IC50 (influenza A H3N2 virus) is reported as 1030 ± 181 µM.
